# Data from patent US6355428B1, “Nucleic acid ligand interaction assays” (Genelabs Technologies, Inc., priority 1998, dated 2002).
# What was measured:
# [1] = system: CTTTATTATTTT (AT-rich) DNA duplex (SEQ ID NO: 2); experiment: SPA direct binding assay, A/T-rich indicator duplex
# From the text: (§1) This technology can be applied to studies of ligand binding as disclosed herein. Example 13, below, describes the use of the assay in a high throughput screening method, using the SPA detection system. In this example, the first oligonucleotide is labeled with biotin, and is then tightly bound to streptavidin-coated SPA beads via the strong biotin/streptavidin interaction. These beads are impregnated with scintillant. The second oligonucleotide is labeled with a weak β-emitter, such as ^3H or ^33P. The radioactive second oligonucleotide is mixed with a solution of the beads under conditions at which the first and second oligonucleotides exist primarily as single strands, as described above. The signal will thus be low, as the oligonucleotides are non-hybridized. When ligand is added, the duplex form is stabilized, and the increased proximity of the radioactive isotope (e.g., ^3H, ^33P) in the second oligonucleotide causes the bead to which the first oligonucleotide is bound to scintillate. A signal thus indicates the presence of an effective binding ligand molecule; test sequences giving higher signals indicate the relative preference for different sequences.
# (§2) The data in Table II compare raw signal counts from SPA assays using three different oligonucleotides and three concentrations (0, 100, and 500 nM) of the DNA binding drug distamycin. The oligonucleotides used were G/C-rich (CCGCGCC; SEQ ID NO: 6), A/T-rich (CTTTATTATTTT; SEQ ID NO: 2), or mixed sequence (GCGGTATTT; SEQ ID NO: 12) DNA duplexes. One strand of the duplex was synthesized with a 5′-biotin label, the other strand was labeled with ^33P, as described in Example 13.
# (§3) Indicator oligonucleotides as shown in Table 1 were used in this assay, as shown in Table II and FIGS. 4A-E. One strand of each duplex was labeled with biotin at the 5′-end, and the complementary strand was 3′-labeled with ^33P. The two complementary strands were incubated with streptavidin-coated SPA beads (Amersham, Arlington Heights, Ill.) at room temperature in a buffer containing 20 mM HEPES, pH 7.5, 0.1 mM EDTA, and 20 mM NaCl. In the absence of ligand, and under these conditions, the oligonucleotides exist in single-stranded conformation. As a result, the oligonucleotide containing the radioactive label is not in close proximity to the SPA bead, and the light given off by the beads is low, i.e., at background. As a duplex-stabilizing ligand is added, the radioactive ^33P is brought into close proximity to the SPA bead, and the light emitted from the SPA bead increases. Accordingly, each of five known DNA-binding compounds was added in increasing concentrations, and the effect on scintillation count was observed, giving the results shown in FIGS. 4A-E.
# [2] = system: CCGCGCC (GC-rich) DNA duplex (SEQ ID NO: 6); experiment: SPA (scintillation proximity) direct binding assay, G/C-rich indicator duplex
# From the text: as §1, §2
# as §3, with “The two complementary strands were incubated with streptavidin-coated SPA beads (Amersham, Arlington Heights, Ill.) at room temperature in a buffer containing 20 mM HEPES, pH 7.5, 0.1 mM EDTA, and 20 mM NaCl.” left out
# [3] = system: RNA 5′-rCUAGAUCUGA-3′ (SEQ ID NO: 23) double stranded RNA probe; experiment: Fluorescence quenching direct binding assay, RNA; conditions: change in fluorescence similar to single-stranded controls
# Description: The specific examples described in this section employ fluorescence quenching as the detection system. In these examples, because conditions are adjusted to maintain the oligonucleotides in single-stranded form in the absence of the ligand, the assay starts with the system at a high or maximum level of fluorescence, and fluorescence generally decreases, depending on binding affinity, as the ligand is added.
# In the Figure legends, RNA oligonucleotides are denoted by an “r” at the beginning of the sequence, and single stranded controls by “ss” at the end of the sequence. These single stranded sequence, are used alone in control experiments, which thus employ only an “F” strand and no complementary quenching strand. Any quenching of fluorescence that is not due to hybridization can thus be acounted for. Maximum quenching expected on complete hybridization of these oligonucleotides is 85-90%; therefore some signal remains after complete hybridization. The signal is plotted so that it is normalized to the control signal in the absence of ligand.
# Netropsin has been shown in previous studies to bind preferentially to A/T rich regions of DNA. […] Netropsin also binds well to the sequence 5′-GCGGTATTT-3′ (SEQ ID NO: 12), which is a useful “indicator” probe (as discussed below), having both C/G and A/T rich sequences. […]
"CPM ([1]; 100 nM Distamycin, 10 mM Na+)","CPM ([1]; 100 nM Distamycin, 50 mM Na+)","CPM ([1]; 500 nM Distamycin, 10 mM Na+)","CPM ([1]; 500 nM Distamycin, 50 mM Na+)","CPM ([2]; 100 nM Distamycin, 10 mM Na+)","CPM ([2]; 100 nM Distamycin, 50 mM Na+)","CPM ([2]; 500 nM Distamycin, 10 mM Na+)","CPM ([2]; 500 nM Distamycin, 50 mM Na+)",SMILES,"binding (decrease in fluorescence, FIG. 3A) [3]"
2218 CPM,2448 CPM,3332 CPM,3352 CPM,699 CPM,889 CPM,744 CPM,666 CPM,"Cn1cc(NC(=O)c2cc(NC(=O)c3cc(NC=O)cn3C)cn2C)cc1C(=O)NCCC(=N)N [Distamycin, distamycin]",–
–,–,–,–,–,–,–,–,"Cn1cc(NC(=O)c2cc(NC(=O)CN=C(N)N)cn2C)cc1C(=O)NCCC(=N)N [Netropsin, netropsin]",does not bind well
